Patent US11918550B2, “Sensitization of cancer cells to differentiation therapy with mitochondrial uncoupler niclosamide ethanolamine” (The Board of Trustees of the Leland Stanford Junior …, priority 2020, dated 2024)

What was measured:
Type in all cases: cell-based
SK-N-BE(2) cells [1] = test: Global DNA methylation analysis by LC-MS (5mdc/dc); settings: 1 μM, 5 h, 24 h and 48 h vs DMSO
SK-N-BE(2) cells [2] = test: Western blot of RA signaling proteins; settings: 1 μM 5-AZA with 1 μM RA, 24 hrs
Description: (§1) Protein extraction and immunoblot. Cells were washed with ice-cold PBS buffer (Invitrogen, 20012050) and lysed with harvest buffer (10 mM Hepes pH 7.9, 50 mM NaCl, 500 mM sucrose, 0.1 mM EDTA and 0.5% Trition X-100) supplemented with 1% Halt inhibitors (Thermo Scientific™, 78443) for 10 minutes. Cell lysate was centrifuged at 3000 rpm for 3 min at 4° C. The supernatant containing cytosolic proteins was transferred to a different tube. The pellet containing nuclear proteins was dissolved with nuclear lysis buffer (10 mM Hepes pH 7.9, 0.5M NaCl, 0.1 mM EDTA, 0.1 mM EGTA and 0.1% NP40) supplemented with 1% Halt inhibitors (Thermo Scientific™, 78443) for 5 minutes at 4° C. Then the solution was sonicated at 4° C. for 6 cycles (1 cycle=30 s sonication and 30 s cooldown with “High” energy intensity) using a Bioruptor® Plus sonication (Diagenode, UCD-300). After sonication, the solution was centrifuged at 15,000 rpm for 10 minutes. The supernatant was kept as nuclear extraction. Protein concentration was determined by BCA assay (Thermo Scientific, 23227). 5 μg nuclear proteins or 7.5 μg cytosolic proteins were boiled in loading buffer with reducing reagents (Invitrogen, NuPAGE™ LDS Sample Buffer (4X), NP0007), then separated with SDS-PAGE (Nupage™ 4-12% Bis-Tris Protein Gels, 1.0 mm, Invitrogen™, NP0322BOX). Protein was transferred onto a nitrocellulose membrane (Thermo Scientific™, 88018). After blocking in 5% non-fat milk for 30 minutes at room temperature (RT), the primary antibody was added for incubation overnight at 4° C. After washing with TBST (CST, #9997, 1:10 diluted by deionized water) for 3 times, HRP-conjugated secondary antibodies were applied. Signals were detected with an ECL kit (Thermo Scientific™, 34577) by using BioRad Universal Hood II.

[3] = tested on: RA-resistant neuroblastoma cells; test: Morphological differentiation with 5-AZA and 13-cis-RA; settings: 5-AZA with 1 μM 13-cis-RA, 3 days and 6 days
SK-N-BE(2) = test: Cell proliferation and morphology change under RA treatment; settings: 13-cis-RA
Description: (§2) Cell proliferation and clonogenic assay. 2×10^4 cells were seeded in 12 well-plate and allowed to attached overnight. Then the cells were treated with various conditions as indicated for 48 h or 96 h (n=3). After treatment, cells were counted using hemocytometer.

NB16 = test: as above; settings: NB16, 13-cis-RA
Description: as §2

CHP134 = test: as above; settings: CHP134, 13-cis-RA
Description: as §2

SMS-KCNR = test: as above; settings: 13-cis-RA
Description: as §2

SK-N-BE2 = test: Expression of RA receptors under RA treatment; settings: SK-N-BE2, RA 24 h
Description: as §1

NB16 cells = test: Expression of RA receptors under RA treatment; settings: NB16, RA 24 h
Description: as §1

Structure (SMILES)	global DNA methylation (ratio of 5-methyl-deoxycytidine to deoxycytidine) (SK-N-BE(2) cells [1])	RA-induced expression of CRABP2 (SK-N-BE(2) cells [2])	RA-induced expression of RARγ (SK-N-BE(2) cells [2])	differentiation with RA (morphological changes) [3]	proliferation arrest (SK-N-BE(2); 48 hrs and 96 hrs)	differentiation morphology (SK-N-BE(2); 96 hrs)	proliferation arrest (NB16; 48 hrs and 96 hrs)	differentiation morphology (NB16; 96 hrs)	proliferation (CHP134; 48 hrs and 96 hrs)	neuron differentiation morphology (CHP134; 96 hrs)	proliferation (SMS-KCNR; 48 hrs and 96 hrs)	neuron differentiation morphology (SMS-KCNR; 96 hrs)	induction of RARα upon RA treatment (vs RA-sensitive cell lines) (SK-N-BE2)	induction of RARγ upon RA treatment (vs RA-sensitive cell lines) (SK-N-BE2)	induction of RARα upon RA treatment (vs RA-sensitive cell lines) (NB16 cells)	induction of RARγ upon RA treatment (vs RA-sensitive cell lines) (NB16 cells)
Nc1ncn([C@@H]2O[C@H](CO)[C@@H](O)[C@H]2O)c(=O)n1 [5-Aza, 5-Azacytidine]	reduced	enhanced	enhanced	induced differentiation	–	–	–	–	–	–	–	–	–	–	–	–
CC1=C(/C=C/C(C)=C/C=C/C(C)=C\C(=O)O)C(C)(C)CCC1 [RA, 13-cis-retinoic acid]	–	–	–	–	did not show	did not show	did not show	did not show	proliferation arrest	significantly induced	proliferation arrest	significantly induced	less induction	less induction	less induction	less induction
